Columns and labels:
Geotrichum candidum Link = test: Mycelial growth inhibition on agar (contact activity); format: cell-based; details: Tabelle 12
Protocol: (§1) Die Prüfungen werden nach dem Verfahren zur Ermittlung der Kontaktaktivität durchgeführt. Man verwendet das in Wasser gelöste Kalium-N-(vinyloxyäthyl)dithiocarbamat, führt es in ein Nährmedium ein und vergießt auf Petri-Schalen. Nach 24 Stunden wird mit Pilzmyzelium nach einem Stichverfahren geimpft. Dann temperiert man die Schalen innerhalb von 5 Tagen bei einer zwischen 24 und 26 °C liegenden Temperatur und mißt den Durchmesser von Pilzkolonien, ermittelt den Prozentsatz der Hemmung des Myzelwachstums (S) ausgehend von Angaben am 5. Tag nach der Abbott-Formel [drawing 13] worin dc für den Durchmesser der Pilzkolonien, de für den Durchmesser von Pilzkolonien in der Schale stehen, wo ein die zu prüfenden Stoffe enthaltendes Medium vorhanden ist. Dieses Verfahren zur Ermittlung der mikrobiologischen Aktivität ist in anderen Beispielen verwendet.
(§2) Die Pilzkulturen werden auf Würzeagar gezüchtet. Ergebnisse, erhalten bei der Prüfung der fungiziden Aktivität gegen reine Kulturen von Mikroorganismen, welche Bioschädigungen hervorrufen, sind in der Tabelle 1 dargestellt.

Penicillium charlesii = test: as above; format: cell-based; details: Tabelle 12
Protocol: as §1, §2

Penicillium chrysogenum = test: as above; format: cell-based; details: Tabelle 12
Protocol: as §1, §2

Walrotiela subiculesa = test: as above; format: cell-based; details: Tabelle 12
Protocol: as §1, §2

Bacillus = test: Bactericidal activity on agar (concentration of complete growth inhibition); format: cell-based; details: % bezogen auf den Wirkstoff; am 5. Tag
Protocol: (§3) Geprüft wird die bakterizide Aktivität von Kalium-, Natrium-, Zink- und Kupfersalzen der N-(Vinyloxyäthyl)dithiocarbamidsäure gegen Bakterien der Gattungen Bacillus, Micrococcus, Pseudomonas, Escherichia und Xantomonas.
(§4) Man stellt wäßrige Stofflösungen verschiedener Konzentration her, die so berechnet werden, daß die Stoffkonzentration in der Petri-Schale bei der Gabe von 1 ml Lösung in das geschmolzene Nährmedium (45 bis 50 °C) zwischen 0,003 und 25 % (bezogen auf den Wirkstoff) schwankt. Nach 18 bis 24 Stunden bringt man auf die Oberfläche des Nährmediums 0,1 ml wäßrige Suspension eintägiger reiner Kulturen von Bakterien auf und verteilt sie gleichmäßig. In Kontrollschalen verteilt sich 0,1 ml Wasser über die Oberfläche des Nährmediums. Die Inkubation erfolgt bei 37 °C innerhalb von 5 Tagen. Die Wirksamkeit der Stoffe wird nach dem Auftreten des Bakterienwachstums auf der Oberfläche des Nährmediums eingeschätzt. Die Prüfergebnisse sind in der Tabelle 13 dargestellt.

Escherichia = test: as above; format: cell-based; details: % bezogen auf den Wirkstoff; am 5. Tag
Protocol: as §3, §4

Micrococcus = test: as above; format: cell-based; details: % bezogen auf den Wirkstoff; am 5. Tag
Protocol: as §3, §4

Pseudomonas = test: as above; format: cell-based; details: % bezogen auf den Wirkstoff; am 5. Tag
Protocol: as §3, §4

Xantomonas = test: as above; format: cell-based; details: % bezogen auf den Wirkstoff; am 5. Tag
Protocol: as §3, §4

[1] = Acute toxicity (LD50) in mice; format: in vivo, weißen Mäusen; details: intraabdominale Applikation an weißen Mäusen
[2] = test system: gewöhnlichen Mehlkäfern und Schwarmspinnerraupen; test: Antifeedant activity; format: in vivo; details: Vergleichsmuster Brestan
Excerpt: Die Prüfung der antiphydanten Aktivität wurde an gewöhnlichen Mehlkäfern und Schwarmspinnerraupen durchgeführt.

[3] = Solubility in water (descriptive); format: physicochemical
[4] = Storage stability (descriptive); format: physicochemical
Cladosporium resinae = test: Mycelial growth inhibition on agar (contact activity); format: cell-based; details: Tabelle 12
[5] = test system: Cladosporium cladosporioides; test: as above; format: cell-based; details: Tabelle 12
Acremonium cowum = test: as above; format: cell-based; details: Tabelle 12
Acremonium charticola = test: as above; format: cell-based; details: Tabelle 12
[6] = Konzentration des Praparats 0,1 %
[7] = Konzentration des Praparats 0,2 %
[8] = Konzentration des Praparats 0,4 %
[9] = Konzentration des Praparats 0,05 %
[10] = Konzentration des Praparats 0,8 %

Kupfer-N-(vinyloxyäthyl)dithiocarbamat
Myzelhemmung in % (Geotrichum candidum Link; [6]): 100%
Myzelhemmung in % (Geotrichum candidum Link; [7]): 100%
Myzelhemmung in % (Geotrichum candidum Link; [8]): 100%
Myzelhemmung in % (Geotrichum candidum Link; [9]): 30%
Myzelhemmung in % (Geotrichum candidum Link; [10]): 100%
Myzelhemmung in % (Penicillium charlesii; [6]): 26%
Myzelhemmung in % (Penicillium charlesii; [7]): 37%
Myzelhemmung in % (Penicillium charlesii; [8]): 92%
Myzelhemmung in % (Penicillium charlesii; [9]): 24%
Myzelhemmung in % (Penicillium charlesii; [10]): 100%
Myzelhemmung in % (Penicillium chrysogenum; [6]): 4%
Myzelhemmung in % (Penicillium chrysogenum; [7]): 40%
Myzelhemmung in % (Penicillium chrysogenum; [8]): 85%
Myzelhemmung in % (Penicillium chrysogenum; [9]): 4%
Myzelhemmung in % (Penicillium chrysogenum; [10]): 100%
Myzelhemmung in % (Walrotiela subiculesa; [6]): 50%
Myzelhemmung in % (Walrotiela subiculesa; [7]): 45%
Myzelhemmung in % (Walrotiela subiculesa; [8]): 100%
Myzelhemmung in % (Walrotiela subiculesa; [9]): 0%
Myzelhemmung in % (Walrotiela subiculesa; [10]): 100%
Konzentrationen, welche das Bakterienwachstum völlig (100 %) hemmen (Bacillus): 0,25%
Konzentrationen, welche das Bakterienwachstum völlig (100 %) hemmen (Escherichia): 0,25%
Konzentrationen, welche das Bakterienwachstum völlig (100 %) hemmen (Micrococcus): 0,25%
Konzentrationen, welche das Bakterienwachstum völlig (100 %) hemmen (Pseudomonas): 0,25%
Konzentrationen, welche das Bakterienwachstum völlig (100 %) hemmen (Xantomonas): 0,25%
LD50 [1]: 267 mg/kg
antiphydante Aktivität [2]: auf gleicher Höhe mit Brestan
Löslichkeit in Wasser [3]: unlöslich
Lagerbeständigkeit [4]: lagerbeständig
Myzelhemmung in % (Cladosporium resinae; [6]): 43%
Myzelhemmung in % (Cladosporium resinae; [7]): 75%
Myzelhemmung in % (Cladosporium resinae; [8]): 100%
Myzelhemmung in % (Cladosporium resinae; [9]): 34%
Myzelhemmung in % (Cladosporium resinae; [10]): 100%
Myzelhemmung in % [5, 6]: 100%
Myzelhemmung in % [5, 7]: 100%
Myzelhemmung in % [5, 8]: 100%
Myzelhemmung in % [5, 9]: 45%
Myzelhemmung in % [5, 10]: 100%
Myzelhemmung in % (Acremonium cowum; [6]): 100%
Myzelhemmung in % (Acremonium cowum; [7]): 100%
Myzelhemmung in % (Acremonium cowum; [8]): 100%
Myzelhemmung in % (Acremonium cowum; [9]): 50%
Myzelhemmung in % (Acremonium cowum; [10]): 100%
Myzelhemmung in % (Acremonium charticola; [6]): 50%
Myzelhemmung in % (Acremonium charticola; [7]): 100%
Myzelhemmung in % (Acremonium charticola; [8]): 100%
Myzelhemmung in % (Acremonium charticola; [9]): 43%
Myzelhemmung in % (Acremonium charticola; [10]): 100%
